Results: ChEMBL document CHEMBL5665443, “Enzyme Inhibitor Single Concentration assay results for EUbOPEN Chemogenomics Library” (2024)

How the values were obtained:
[1] = biological target: T1, Adenine DNA glycosylase (Homo sapiens) (UniProt Q9UIF7); settings: Hit No;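 further: human MUTYH activity read as 594 nm fluorescence from cleavage and release of a quenched DNA duplex, coupled with APE1 for strand incision, lower signal meaning inhibition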
T1 sequence (whole entry): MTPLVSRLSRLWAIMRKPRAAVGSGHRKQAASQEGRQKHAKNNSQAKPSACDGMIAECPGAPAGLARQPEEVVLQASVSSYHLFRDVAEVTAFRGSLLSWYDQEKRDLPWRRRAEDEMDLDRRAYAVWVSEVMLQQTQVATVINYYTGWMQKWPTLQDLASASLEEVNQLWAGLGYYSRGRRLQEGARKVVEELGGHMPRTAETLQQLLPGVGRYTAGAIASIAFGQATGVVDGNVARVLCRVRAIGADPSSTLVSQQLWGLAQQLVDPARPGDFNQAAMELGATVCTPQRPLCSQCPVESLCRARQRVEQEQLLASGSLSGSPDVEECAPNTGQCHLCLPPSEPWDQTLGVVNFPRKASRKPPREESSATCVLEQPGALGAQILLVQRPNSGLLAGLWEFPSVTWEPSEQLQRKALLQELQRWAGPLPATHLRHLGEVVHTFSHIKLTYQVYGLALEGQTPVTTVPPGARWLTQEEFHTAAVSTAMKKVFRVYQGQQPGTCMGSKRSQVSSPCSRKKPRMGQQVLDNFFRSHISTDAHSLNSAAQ
Description: Inhibition of MUTYH by quantifying inhibition of MUTYH-mediated cleavage and dissociation of quenched duplex DNA oligonucleotides, measured as fluorescence at 594 nm. To generate a functional strand incision and increase turn-over this assay is coupled to APE1.

[2] = biological target: Uracil-DNA glycosylase (Homo sapiens) (UniProt P13051); settings: Hit No;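 further: UNG excision on a quenched double-stranded DNA oligo probe, with APE1 added for strand incision and turnover, read as fluorescence at 594 nm as strands separate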
Description: Inhibition of UNG by quantifying inhibition of UNG-mediated cleavage and dissociation of quenched duplex DNA oligonucleotides, measured as fluorescence at 594 nm. To generate a functional strand incision and increase turn-over this assay is coupled to APE1.

[3] = biological target: N-glycosylase/DNA lyase (Homo sapiens) (UniProt O15527); settings: Compound Concentration 10.0 uM, Hit No;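 further: OGG1 cleavage of a quenched duplex DNA oligonucleotide, coupled to APE1 for strand incision, read as fluorescence at 594 nm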
Description: Inhibition of OGG1 by quantifying inhibition of OGG1-mediated cleavage and dissociation of quenched duplex DNA oligonucleotides, measured as fluorescence at 594 nm. To generate a functional strand incision and increase turn-over this assay is coupled to APE1.

[4] = biological target: Endonuclease 8-like 1 (Homo sapiens) (UniProt Q96FI4); settings: Hit No;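 further: fluorescence at 594 nm from quenched duplex DNA oligonucleotides released by NEIL1 cleavage and strand separation, reported as reduction of this enzyme activity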
Description: Inhibition of NEIL1 by quantifying inhibition of NEIL1-mediated cleavage and dissociation of quenched duplex DNA oligonucleotides, measured as fluorescence at 594 nm.

[5] = biological target: T2, Endonuclease III-like protein 1 (Homo sapiens) (UniProt P78549); settings: Hit No;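 further: enzyme assay tracking NTHL1 cutting and release of a quenched double-stranded DNA oligo substrate, read as fluorescence at 594 nm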
T2 sequence (whole entry): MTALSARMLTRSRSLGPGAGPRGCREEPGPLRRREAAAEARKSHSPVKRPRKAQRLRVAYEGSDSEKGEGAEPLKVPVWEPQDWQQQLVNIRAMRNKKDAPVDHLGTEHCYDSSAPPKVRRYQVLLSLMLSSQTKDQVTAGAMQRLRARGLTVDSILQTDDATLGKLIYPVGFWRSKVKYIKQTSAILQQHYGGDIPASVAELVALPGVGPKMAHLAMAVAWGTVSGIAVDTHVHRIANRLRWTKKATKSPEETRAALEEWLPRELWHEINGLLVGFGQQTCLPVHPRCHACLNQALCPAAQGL
Description: Inhibition of NTHL1 by quantifying inhibition of NTHL1-mediated cleavage and dissociation of quenched duplex DNA oligonucleotides, measured as fluorescence at 594 nm.

[6] = biological target: G/T mismatch-specific thymine DNA glycosylase (Homo sapiens) (UniProt Q13569); settings: Hit No;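 further: human TDG cleavage of quenched duplex DNA oligonucleotides coupled to APE1, strand release read as fluorescence at 594 nm, inhibition of TDG activity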
Description: Inhibition of TDG by quantifying inhibition of TDG-mediated cleavage and dissociation of quenched duplex DNA oligonucleotides, measured as fluorescence at 594 nm. To generate a functional strand incision and increase turn-over this assay is coupled to APE1.

[7] = biological target: Methyl-CpG-binding domain protein 4 (Homo sapiens) (UniProt O95243); settings: Hit No;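 further: MBD4 activity read as fluorescence at 594 nm from cleavage and release of a quenched duplex DNA oligonucleotide, with APE1 coupled to incise the strand and raise turnover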
Description: Inhibition of MBD4 by quantifying inhibition of MBD4-mediated cleavage and dissociation of quenched duplex DNA oligonucleotides, measured as fluorescence at 594 nm. To generate a functional strand incision and increase turn-over this assay is coupled to APE1.

[8] = biological target: T3, Endonuclease 8-like 2 (Homo sapiens) (UniProt Q969S2); settings: Hit No;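 further: fluorescence at 594 nm reports NEIL2 cutting and release of a quenched double-stranded DNA oligo substrate, reduced signal read as inhibition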
T3 sequence (whole entry): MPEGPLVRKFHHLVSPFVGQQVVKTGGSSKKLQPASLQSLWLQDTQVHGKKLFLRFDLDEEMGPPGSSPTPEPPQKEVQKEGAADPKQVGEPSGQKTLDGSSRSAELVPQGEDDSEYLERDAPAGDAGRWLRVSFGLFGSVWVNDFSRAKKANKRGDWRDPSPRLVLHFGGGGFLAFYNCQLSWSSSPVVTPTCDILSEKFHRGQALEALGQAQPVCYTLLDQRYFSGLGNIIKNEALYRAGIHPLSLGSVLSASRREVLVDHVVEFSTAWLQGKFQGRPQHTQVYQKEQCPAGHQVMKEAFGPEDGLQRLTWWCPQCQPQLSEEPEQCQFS
Description: Inhibition of NEIL2 by quantifying inhibition of NEIL2-mediated cleavage and dissociation of quenched duplex DNA oligonucleotides, measured as fluorescence at 594 nm.

[9] = biological target: T4, Single-strand selective monofunctional uracil DNA glycosylase (Homo sapiens) (UniProt Q53HV7); settings: Hit No;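 further: enzymatic SMUG1 assay coupled with APE1, reading fluorescence at 594 nm released when a quenched double-stranded DNA oligonucleotide substrate is cleaved and separated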
T4 sequence (whole entry): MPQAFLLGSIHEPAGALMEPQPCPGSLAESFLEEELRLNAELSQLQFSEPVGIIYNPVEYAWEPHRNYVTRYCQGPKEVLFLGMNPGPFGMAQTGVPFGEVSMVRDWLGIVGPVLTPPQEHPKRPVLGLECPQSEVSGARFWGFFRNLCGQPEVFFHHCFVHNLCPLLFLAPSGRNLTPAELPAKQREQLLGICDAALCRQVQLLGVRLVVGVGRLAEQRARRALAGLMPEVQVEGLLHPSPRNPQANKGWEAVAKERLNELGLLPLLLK
Description: Inhibition of SMUG1 by quantifying inhibition of SMUG1-mediated cleavage and dissociation of quenched duplex DNA oligonucleotides, measured as fluorescence at 594 nm. To generate a functional strand incision and increase turn-over this assay is coupled to APE1.

Chain of N-glycosylase/DNA lyase (Homo sapiens) (O15527 whole entry): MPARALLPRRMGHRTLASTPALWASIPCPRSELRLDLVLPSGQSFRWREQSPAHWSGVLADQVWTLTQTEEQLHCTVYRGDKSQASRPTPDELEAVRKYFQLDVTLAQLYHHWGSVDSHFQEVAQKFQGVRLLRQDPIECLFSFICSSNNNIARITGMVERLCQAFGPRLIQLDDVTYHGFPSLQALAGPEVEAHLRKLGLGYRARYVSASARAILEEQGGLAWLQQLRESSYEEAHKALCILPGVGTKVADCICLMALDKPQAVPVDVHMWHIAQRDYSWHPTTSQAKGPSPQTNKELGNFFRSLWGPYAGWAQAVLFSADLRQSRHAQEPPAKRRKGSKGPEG
Chain of Uracil-DNA glycosylase (Homo sapiens) (P13051 whole entry): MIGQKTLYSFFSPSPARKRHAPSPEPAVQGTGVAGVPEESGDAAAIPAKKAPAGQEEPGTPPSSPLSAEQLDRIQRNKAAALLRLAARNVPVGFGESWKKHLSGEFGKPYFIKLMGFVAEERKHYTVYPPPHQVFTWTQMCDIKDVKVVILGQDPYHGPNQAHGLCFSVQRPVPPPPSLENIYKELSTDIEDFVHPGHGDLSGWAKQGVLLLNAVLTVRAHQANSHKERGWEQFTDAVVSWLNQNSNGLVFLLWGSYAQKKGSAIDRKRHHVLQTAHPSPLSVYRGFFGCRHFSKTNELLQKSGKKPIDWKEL
Chain of G/T mismatch-specific thymine DNA glycosylase (Homo sapiens) (Q13569 whole entry, the tested form may be a part): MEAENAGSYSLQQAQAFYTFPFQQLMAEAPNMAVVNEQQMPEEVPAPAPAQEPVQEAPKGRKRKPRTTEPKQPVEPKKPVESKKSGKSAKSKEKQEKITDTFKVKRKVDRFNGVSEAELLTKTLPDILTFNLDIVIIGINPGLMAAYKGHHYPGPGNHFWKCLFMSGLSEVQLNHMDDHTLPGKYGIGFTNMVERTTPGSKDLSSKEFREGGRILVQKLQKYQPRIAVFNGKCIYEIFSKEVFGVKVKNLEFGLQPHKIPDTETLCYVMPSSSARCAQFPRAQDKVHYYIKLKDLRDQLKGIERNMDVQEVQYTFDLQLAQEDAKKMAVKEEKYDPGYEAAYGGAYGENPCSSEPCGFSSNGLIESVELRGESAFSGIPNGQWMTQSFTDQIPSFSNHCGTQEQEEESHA
Chain of Methyl-CpG-binding domain protein 4 (Homo sapiens) (O95243 whole entry, the tested form may be a part): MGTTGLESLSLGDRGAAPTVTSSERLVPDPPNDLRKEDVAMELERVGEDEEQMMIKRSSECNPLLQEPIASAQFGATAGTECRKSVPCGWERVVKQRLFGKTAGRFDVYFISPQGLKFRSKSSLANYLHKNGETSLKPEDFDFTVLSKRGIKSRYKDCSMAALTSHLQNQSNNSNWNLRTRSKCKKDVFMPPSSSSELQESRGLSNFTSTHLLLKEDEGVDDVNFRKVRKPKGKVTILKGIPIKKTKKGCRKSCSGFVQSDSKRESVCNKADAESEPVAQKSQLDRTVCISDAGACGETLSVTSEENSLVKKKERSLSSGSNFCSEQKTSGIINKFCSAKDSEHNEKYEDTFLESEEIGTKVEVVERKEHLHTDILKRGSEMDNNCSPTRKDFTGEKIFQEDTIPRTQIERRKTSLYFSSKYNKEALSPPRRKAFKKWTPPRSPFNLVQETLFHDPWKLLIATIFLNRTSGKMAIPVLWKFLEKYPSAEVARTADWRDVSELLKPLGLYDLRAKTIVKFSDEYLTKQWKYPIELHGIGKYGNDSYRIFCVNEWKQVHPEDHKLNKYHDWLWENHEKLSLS
Chain of Endonuclease 8-like 1 (Homo sapiens) (Q96FI4 whole entry): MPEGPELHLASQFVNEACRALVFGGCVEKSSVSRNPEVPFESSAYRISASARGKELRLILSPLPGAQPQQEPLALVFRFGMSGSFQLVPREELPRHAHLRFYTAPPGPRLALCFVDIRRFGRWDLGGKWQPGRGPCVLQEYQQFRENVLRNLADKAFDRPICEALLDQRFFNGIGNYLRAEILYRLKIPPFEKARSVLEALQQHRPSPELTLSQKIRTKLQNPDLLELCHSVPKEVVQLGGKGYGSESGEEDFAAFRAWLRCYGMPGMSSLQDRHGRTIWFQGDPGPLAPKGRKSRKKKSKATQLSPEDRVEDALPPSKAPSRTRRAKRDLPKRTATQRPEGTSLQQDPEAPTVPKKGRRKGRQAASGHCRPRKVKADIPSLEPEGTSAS

Molecule	inhibition ([1]; Compound Concentration 10.0 uM) [%]	inhibition ([2]; Compound Concentration 10.0 uM) [%]	inhibition [3] [%]	inhibition ([4]; Compound Concentration 10.0 uM) [%]	inhibition ([5]; Compound Concentration 10.0 uM) [%]	inhibition ([6]; Compound Concentration 10.0 uM) [%]	inhibition ([7]; Compound Concentration 10.0 uM) [%]	inhibition ([8]; Compound Concentration 10.0 uM) [%]	inhibition ([1]; Compound Concentration 1.0 uM) [%]	inhibition ([2]; Compound Concentration 1.0 uM) [%]	inhibition ([4]; Compound Concentration 1.0 uM) [%]	inhibition ([9]; Compound Concentration 1.0 uM) [%]	inhibition ([5]; Compound Concentration 1.0 uM) [%]	inhibition ([6]; Compound Concentration 1.0 uM) [%]	inhibition ([7]; Compound Concentration 1.0 uM) [%]	inhibition ([8]; Compound Concentration 1.0 uM) [%]	inhibition ([9]; Compound Concentration 10.0 uM) [%]
COc1ccccc1S(=O)(=O)Nc1ccc(C)cc1Oc1ccc2c(N)nccc2c1	3.09	-1.95	-5.28	11	17.1	9.87	10.2	7.55									
CC(C)(C)c1cc(NC(=O)Nc2ccc(-c3cn4c(n3)sc3cc(OCCN5CCOCC5)ccc34)cc2)no1									11.2	1.47	5.55	19.8	-3.4	37.3	0.784	1.85	
H-LVVYPWT-OH	8.4	-2.47	-2.03	7.27	14.6	8.08	9.67	2.2									
CC(C)(C)NC[C@H](O)COc1nsnc1N1CCOCC1	2.84		-3.29	-6.13	-8.34	9.57	2.07	-5.47									-0.808
Cc1cc(F)c(C(=O)Nc2cccc(-c3nncn3C(C)C)n2)cc1-n1cnc(C2CC2)c1									8.56	-0.67	8.59	12.2	-4.79	44.4	18.6	2.93	
COc1cc(-c2cn([C@H]3CCc4ccccc4N(CC(F)(F)F)C3=O)nn2)ccc1-n1ccc(C)n1	-8.57	8.95			-9.83	24.5	-5.88	12.5									8.81
O=C1c2cccc3c2[C@H](CCC3)CN1[C@@H]1CN2CCC1CC2	-5.22	-7.93		-2.96	3.04	0.841	0.552										-4.7
O[C@H]1CC[C@H](Nc2ncc3nc(Nc4c(F)cc(F)cc4F)n([C@H]4CCOC4)c3n2)CC1	1.28	2.17	6.26		1.48	37.3	-7.12										20.8
Cc1cc(NC(=O)c2cccc(S(F)(F)(F)(F)F)c2)cc(-n2ccn3nc(-c4cccnc4)cc23)c1		0.948			7.92	17.7	4.59	-7.89	16	1.8		19.3	-2	54.6			3.64
Cc1c[nH]c2nccc(Oc3c(F)cc(Nc4cc(Cl)nc(N)n4)cc3F)c12									11.7	4.99		20.7	-0.432	54.4	43.9	3.69	
CCn1c(=O)c(C)cn(Cc2nnc(-c3ccc(F)c(O)c3F)s2)c1=O	-9.23	-4.5	-4.39		2	48	53.9										3.85
CN1C2CCCC1CC(Nc1ccccc1Br)C2 (stereo not drawn)	6.82	-6.41		-3.4	24.5	-8.71	11.1	-3.41									-9
Cn1cncc1[C@@](O)(COc1ccc(C#N)cc1-c1ccc(OC(F)(F)F)cc1)c1ccc(C#N)cc1	-9.72	-3.07	10.2		7.26	45.8	56										-1.81
Cc1ccccc1N1CCN(CCc2nnc3n2CCCC3)CC1	7.44			0.834	-6.14	4.82	-9.49	-1.98									-1.58
O=c1ccc2ccc(OCCCCN3CCN(c4cccc5sccc45)CC3)cc2[nH]1	3.6		-3.25	6.47	4.86	-1.81	-1.94	-1.98									-9.19
CN(C)CCOc1ccc(-c2nc(-c3ccncc3)c(-c3ccc4c(c3)CC/C4=N\O)[nH]2)cc1	0.369	11.4		1.19	11.2	47.4	23.9	26.4									-6.49
CC(C)C(=O)Nc1n[nH]c2cc(-c3cccc(NS(=O)(=O)C4CC4)c3)ccc12	2.74	-0.0214		4.76	-0.61	40.3	-3.9	0.236									13.9
COc1ccc(NC(=O)[C@@H]2C[C@H](C)CC[C@H]2C(C)C)cc1	-7.01	-3.01		-2.36	15.4	-1.07	1.36	-3.15									11.3
Cc1nc(N2CC[C@@H](O)C2)ncc1-c1cc(C(F)(F)F)cc2[nH]ncc12	-2.45	-1.48			-5.89	48	58.5										10.3
Cn1cc(-n2cnc3c(NCc4nc5cc(Cl)c(Cl)cc5[nH]4)nc(N4CCOCC4)nc32)cn1	9.84	3.73		6.21	-7.58	40.7	6.19	1.04									25.7
CNc1ncc2cc(-c3ccc(-c4ncccc4F)cc3Cl)c(=O)n(C[C@H]3OC[C@H](N)CO3)c2n1	10.6	9.96		0.666	-2	48.4	9.96	-5.96									24.9
N[C@@]1(C(=O)O)CO[C@H]2[C@H](C(=O)O)[C@H]21	10.7	-8.59		-2.51	24.5	9.39	10.3	-7.74									2.42
C[C@@H](Oc1cc(-n2cnc3ccc(CN4CCN(C)CC4)cc32)sc1C(N)=O)c1ccccc1C(F)(F)F									6.26	5.21	-0.655	26.8	-6.19	50	15.4		
Cc1cccc(CCN2CCC(C(=O)c3ccc(NS(C)(=O)=O)cc3)CC2)n1	-5.27	-5.19		0.158	0.568	11.1	-1.99	-4.17									-8.55
O=C1N/C(=N/c2ccccc2F)S/C1=C\c1ccc(C(=O)O)cc1	3.09		-2.53	-0.204	17.3	3.04	-3.22	3.51									-0.227
